Like-named read-outs stand apart in the source and are kept apart here.
What was measured:
[1] = test system: A-549; test: SRB assay, lung cancer cell line A-549; assay type: cell-based; settings: Homo sapiens, read-out: In vitro anticancer activity GI50, Lung A-549
Experimental: (§1) Single cell suspension of the tumour cells grown in tissue culture were made, cells counted and cell count adjusted to 1×10^5 to 5×10^5 cells/ml. Ninety six (96) well plates were seeded with this cell suspension, each well receiving 100 μl of it. The plate was then be incubated at 37° C. temperature in CO2 incubator for 24 hours. Drugs were added at concentrations after 24-hour incubation followed by further incubation for 48 hours. Experiment was terminated by gently layering the cells in the wells with 30% TCA and plates were kept in refrigerator for 1 hour following which they were washed thoroughly with tap water, dried attained with 0.4% SRB in 1% acetic aid and finally, the bound SRB eluted with 10 mM tris. Absorbance was read at 540 nm, in the microtitre-plate reader. Optical density of drug-treated cells was compared with that of control cells and cell inhibition was calculated as percent values. Each compound was tested at 10, 20, 40 and 80 μg/ml in triplicate on human malignant cell lines.

[2] = test system: A-2780; test: SRB assay, ovarian cancer cell line A-2780; assay type: cell-based; settings: Homo sapiens, read-out: In vitro anticancer activity GI50, Ovarian A-2780
Experimental: as §1

[3] = test system: MCF7; test: SRB assay, breast cancer cell line MCF7; assay type: cell-based; settings: Homo sapiens, read-out: In vitro anticancer activity GI50, Breast MCF7
Experimental: as §1

[4] = test system: Colo205; test: SRB assay, colon cancer cell line Colo205; assay type: cell-based; settings: Homo sapiens, read-out: In vitro anticancer activity GI50, Colon Colo205
Experimental: as §1

[5] = test system: DWD; test: SRB assay, oral cancer cell line DWD; assay type: cell-based; settings: Homo sapiens, read-out: In vitro anticancer activity GI50, Oral DWD
Experimental: as §1

[6] = test system: KB; test: SRB assay, oral cancer cell line KB; assay type: cell-based; settings: Homo sapiens, read-out: In vitro anticancer activity GI50, Oral KB
Experimental: as §1

[7] = test system: Gurav; test: SRB assay, oral cancer cell line Gurav; assay type: cell-based; settings: Homo sapiens, read-out: In vitro anticancer activity GI50, Oral Gurav
Experimental: as §1

[8] = test system: Hop62; test: SRB assay, lung cancer cell line Hop62; assay type: cell-based; settings: Homo sapiens, read-out: In vitro anticancer activity GI50, Lung Hop62
Experimental: as §1

[9] = test system: Zr-75-1; test: SRB assay, breast cancer cell line Zr-75-1; assay type: cell-based; settings: Homo sapiens, read-out: In vitro anticancer activity GI50, Breast Zr-75-1
Experimental: as §1

[10] = SRB assay, 48 hours drug exposure

COc1cccc2c1C(=O)c1c(O)c3c(c(O)c1C2=O)C[C@@](O)(C(=O)CO)C[C@@H]3O[C@H]1C[C@H](N)[C@H](O)[C@H](C)O1 [ADR, adriamycin, reference compound]
GI50 ([1]; A549, SRB assay, 48 hours drug exposure): < 0.1 µM
GI50 ([2]; A2780, SRB assay, 48 hours drug exposure): < 0.1 µM
GI50 ([3]; MCF7, SRB assay, 48 hours drug exposure): 0.13 µM
GI50 ([4]; COLO 205, SRB assay, 48 hours drug exposure): < 0.1 µM
GI50 [5, 10]: 0.1 µM
GI50 [6, 10]: 0.13 µM
GI50 [7, 10]: < 0.1 µM
GI50 ([8]; HOP-62, SRB assay, 48 hours drug exposure): 0.15 µM
GI50 ([9]; ZR-75-1, SRB assay, 48 hours drug exposure): 0.11 µM

COc1cc(/C=C(/C(=O)N[C@@H]2c3cc4c(cc3[C@@H](c3cc(OC)c(OC)c(OC)c3)[C@H]3C(=O)OC[C@@H]32)OCO4)c2cc(OC)c(OC)c(OC)c2)ccc1O [Compound 3a, 4β-(E)-3-(4-hydroxy-3-methoxyphenyl)-2-(3,4,5-trimethoxyphenyl)acrylamidopodophyllotoxin]
GI50 ([1]; A549, 48 h): 2.4 µM
GI50 ([8]; HOP-62, 48 h): 2.5 µM
melting point: 134 to 137 °C

COc1ccc(/C=C(/C(=O)N[C@@H]2c3cc4c(cc3[C@@H](c3cc(OC)c(OC)c(OC)c3)[C@H]3C(=O)OC[C@@H]32)OCO4)c2cc(OC)c(OC)c(OC)c2)cc1O [Compound 3b, 4β-(E)-3-(3-hydroxy-4-methoxyphenyl)-2-(3,4,5-trimethoxyphenyl)acrylamido podophyllotoxin]
GI50 ([1]; A549, 48 h): 2.9 µM
GI50 ([8]; HOP-62, 48 h): 2.9 µM
melting point: 145 to 147 °C

COc1cc(/C=C(/C(=O)N[C@@H]2c3cc4c(cc3[C@@H](c3cc(OC)c(OC)c(OC)c3)[C@H]3C(=O)OC[C@@H]32)OCO4)c2cc(OC)c(OC)c(OC)c2)ccc1F [Compound 3c, 4β-(E)-3-(4-fluoro-3-methoxyphenyl)-2-(3,4,5-trimethoxyphenyl)acrylamidopodophyllotoxin]
GI50 ([7]; 48 h): 2.4 µM
GI50 ([8]; HOP-62, 48 h): 2.5 µM
GI50 ([9]; ZR-75-1, 48 h): 2.2 µM
melting point: 144 to 146 °C

COc1ccc(F)c(/C=C(/C(=O)N[C@@H]2c3cc4c(cc3[C@@H](c3cc(OC)c(OC)c(OC)c3)[C@H]3C(=O)OC[C@@H]32)OCO4)c2cc(OC)c(OC)c(OC)c2)c1 [Compound 3e, 4β-(E)-3-(2-fluoro-5-methoxyphenyl)-2-(3,4,5-trimethoxyphenyl)acrylamidopodophyllotoxin]
GI50 ([7]; 48 h): 2.5 µM
GI50 ([9]; ZR-75-1, 48 h): 2.7 µM
melting point: 123 to 126 °C

COc1ccc(/C=C(/C(=O)N[C@@H]2c3cc4c(cc3[C@@H](c3cc(OC)c(OC)c(OC)c3)[C@H]3C(=O)OC[C@@H]32)OCO4)c2cc(OC)c(OC)c(OC)c2)c(F)c1 [Compound 3f, 4β-(E)-3-(2-fluoro-4-methoxyphenyl)-2-(3,4,5-trimethoxyphenyl)acrylamidopodophyllotoxin]
GI50 ([1]; A549, 48 h): 2.1 µM
GI50 ([2]; A2780, 48 h): 2.7 µM
GI50 ([3]; MCF7, 48 h): 2.4 µM
GI50 ([5]; 48 h): 0.19 µM
GI50 ([6]; 48 h): 2.6 µM
GI50 ([7]; 48 h): 0.18 µM
GI50 ([8]; HOP-62, 48 h): 0.17 µM
GI50 ([9]; ZR-75-1, 48 h): 2.5 µM
melting point: 123 to 125 °C

COc1cc(/C(=C\c2ccc(O)c([N+](=O)[O-])c2)C(=O)N[C@@H]2c3cc4c(cc3[C@@H](c3cc(OC)c(OC)c(OC)c3)[C@H]3C(=O)OC[C@@H]32)OCO4)cc(OC)c1OC [Compound 3g, 4β-(E)-3-(4-hydroxy-3-nitrophenyl)-2-(3,4,5-trimethoxyphenyl)acrylamidopodophyllotoxin]
GI50 ([2]; A2780, 48 h): 2.2 µM
GI50 ([3]; MCF7, 48 h): 2.7 µM
GI50 ([4]; COLO 205, 48 h): 2 µM
GI50 ([5]; 48 h): < 0.1 µM
GI50 ([6]; 48 h): 2.2 µM
GI50 ([7]; 48 h): 0.19 µM
GI50 ([8]; HOP-62, 48 h): 0.19 µM
GI50 ([9]; ZR-75-1, 48 h): 0.18 µM

COc1ccc(/C=C(/C(=O)N[C@@H]2c3cc4c(cc3[C@@H](c3cc(OC)c(OC)c(OC)c3)[C@H]3C(=O)OC[C@@H]32)OCO4)c2cc(OC)c(OC)c(OC)c2)cc1[N+](=O)[O-] [Compound 3h, 4β-(E)-3-(4-methoxy-3-nitrophenyl)-2-(3,4,5-trimethoxyphenyl)acrylamidopodophyllotoxin]
GI50 ([2]; A2780, 48 h): 2.5 µM
GI50 ([4]; COLO 205, 48 h): 2.7 µM
GI50 ([5]; 48 h): 2.9 µM
GI50 ([7]; 48 h): 2.6 µM
GI50 ([8]; HOP-62, 48 h): 2.3 µM
GI50 ([9]; ZR-75-1, 48 h): 2.2 µM
melting point: 140 to 143 °C

Reference: patent US8673969B2, “Substituted 4-β-acrylamidopodophyllotoxin congeners as antitumour antibiotics and the process for preparation thereof” (Council of Scientific & Industrial Research, priority 2010, dated 2014)
